For 3 compounds, IC50 and Kb results are on record in article PMC10046369, “Low-Affinity/High-Selectivity Dopamine Transport Inhibition Sufficient to Rescue Cognitive Functions in the Aging Rat” (Biomolecules, 2023).

Structures are written as SMILES.

Holding throughout (experiment): cell-based
Common to all, as to parameters: Eurofins Cerep functional GPCR antagonist assay, reference antagonists

For experiment [1], the target named is T1, 5HT1B (h) (Homo sapiens, UniProt P28222).
T1 construct: gene HTR1B
T1 sequence (P28222 whole entry): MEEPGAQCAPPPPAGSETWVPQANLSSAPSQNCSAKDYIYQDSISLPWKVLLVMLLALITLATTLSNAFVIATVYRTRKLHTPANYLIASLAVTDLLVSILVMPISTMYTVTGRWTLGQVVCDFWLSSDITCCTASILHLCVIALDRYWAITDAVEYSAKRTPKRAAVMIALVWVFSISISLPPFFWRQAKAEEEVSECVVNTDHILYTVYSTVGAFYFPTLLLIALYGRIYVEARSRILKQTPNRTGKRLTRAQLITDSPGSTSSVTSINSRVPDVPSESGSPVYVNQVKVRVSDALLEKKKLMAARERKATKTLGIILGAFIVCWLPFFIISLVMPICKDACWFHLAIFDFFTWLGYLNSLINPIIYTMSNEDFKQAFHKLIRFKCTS

The target in experiment [2] is T1, 5HT1B (h). The source holds these as a separate data set.
Experiment [3] deals with T2, P2Y1 (h) (Homo sapiens, UniProt P47900).
T2 construct: gene P2RY1
T2 sequence (P47900 whole entry): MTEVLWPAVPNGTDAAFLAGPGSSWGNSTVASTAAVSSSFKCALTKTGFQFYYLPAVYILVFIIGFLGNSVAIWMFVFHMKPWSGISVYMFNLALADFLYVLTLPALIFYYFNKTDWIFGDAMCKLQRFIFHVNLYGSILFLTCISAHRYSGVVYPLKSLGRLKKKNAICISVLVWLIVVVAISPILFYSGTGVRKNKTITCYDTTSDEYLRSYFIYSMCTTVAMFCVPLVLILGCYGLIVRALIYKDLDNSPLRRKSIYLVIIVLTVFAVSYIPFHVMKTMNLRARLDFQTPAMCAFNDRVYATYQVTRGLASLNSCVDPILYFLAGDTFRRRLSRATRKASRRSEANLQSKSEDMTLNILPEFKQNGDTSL

The target in experiment [4] is T2, P2Y1 (h). The source holds these as a separate data set.
For experiment [5], the target named is T3, 5-HT2B (h) (Homo sapiens, UniProt P41595).
T3 construct: gene HTR2B
T3 sequence (P41595 whole entry): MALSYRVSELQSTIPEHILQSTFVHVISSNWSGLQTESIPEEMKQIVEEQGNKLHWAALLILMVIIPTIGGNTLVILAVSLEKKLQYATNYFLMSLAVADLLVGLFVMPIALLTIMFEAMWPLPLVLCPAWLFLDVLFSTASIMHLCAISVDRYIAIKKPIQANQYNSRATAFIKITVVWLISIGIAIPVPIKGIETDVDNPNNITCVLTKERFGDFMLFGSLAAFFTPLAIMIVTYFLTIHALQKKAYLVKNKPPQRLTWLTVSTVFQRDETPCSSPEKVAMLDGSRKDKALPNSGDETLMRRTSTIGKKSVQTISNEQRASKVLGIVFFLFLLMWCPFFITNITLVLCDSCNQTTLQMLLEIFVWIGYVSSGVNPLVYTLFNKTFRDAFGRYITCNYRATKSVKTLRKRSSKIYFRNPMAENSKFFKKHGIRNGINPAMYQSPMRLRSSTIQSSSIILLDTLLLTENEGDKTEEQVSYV

Experiment [6] addresses T3, 5-HT2B (h). The source holds these as a separate data set.

The IC50 is the midpoint of a concentration-inhibition curve. A lower IC50 goes with higher potency. What is called Kb is the equilibrium dissociation constant of an antagonist, usually derived from a functional assay. Lower therefore signals higher antagonist affinity.

`CN(C)CCCc1cc(C(=O)Nc2ccc(-c3ccncc3)cc2)ccc1O` [GR55562] displayed an IC50 on 5HT1B (h) [1] of 69 nM. On 5HT1B (h) [2], this compound returned a Kb of 11 nM.
On to `CNc1nc(I)nc2c1ncn2[C@H]1C[C@H](OP(=O)(O)O)[C@]2(COP(=O)(O)O)C[C@H]12` [MRS 2500], for which the antagonist equilibrium constant (Kb) on P2Y1 (h) [3] stood at 0.43 nM. On P2Y1 (h) [4], the IC50 was determined as 1.9 nM.
At 5-HT2B (h) [5], `Cn1ccc2cc3c(cc21)CCN3C(=O)Nc1cccnc1` [SB 206553] gave an IC50 of 19 nM. Also, the Kb at 5-HT2B (h) [6] amounted to 2.9 nM.
